Where “and” joins values, the source holds several entries; their conditions need not be identical. Equal values may be shown once.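 Grown in 96-well plates, cells were treated for 48 hours with each compound at five concentrations. Insufficient inhibition: endpoint recorded as highest concentration tested. At the GI50, growth is halved. Definition used: TGI = concentration required for complete inhibition of growth.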
Legend:
Experiment in all cases: DTP human tumour cell line panel, 48 h
BT-549 breast = test system: BT-549 breast
EKVX NSCLC = test system: EKVX NSCLC
HOP-92 NSCLC = test system: HOP-92 NSCLC
IGROV1 ovarian = test system: IGROV1 ovarian
K-562 leukemia = test system: K-562 leukemia
KM12 colon = test system: KM12 colon
LOX IMVI melanoma = test system: LOX IMVI melanoma
MCF7 breast = test system: MCF7 breast
MDA-MB-435 = test system: MDA-MB-435
T-47D breast = test system: T-47D breast

SMILES	GI50 (BT-549 breast)	TGI (BT-549 breast)	GI50 (EKVX NSCLC)	TGI (EKVX NSCLC)	GI50 (HOP-92 NSCLC)	TGI (HOP-92 NSCLC)	GI50 (IGROV1 ovarian)	TGI (IGROV1 ovarian)	GI50 (K-562 leukemia)	TGI (K-562 leukemia)	GI50 (KM12 colon)	TGI (KM12 colon)	GI50 (LOX IMVI melanoma)	TGI (LOX IMVI melanoma)	GI50 (MCF7 breast)	TGI (MCF7 breast)	GI50 (MDA-MB-435)	TGI (MDA-MB-435)	GI50 (T-47D breast)	TGI (T-47D breast)
C[C@@H](CS[As](C)C)C(=O)N1CCC[C@H]1C(=O)O	0.487 µM	2.31 µM	0.723 µM	8.53 µM	0.0514 µM	0.542 µM	0.439 µM	3.21 µM	0.051 µM	1.1 µM	1.9 µM	12.5 µM	0.172 µM	0.673 µM	0.249 µM	2.03 µM	0.138 µM	0.468 µM	0.606 µM	5.75 µM
COC(=O)c1c2c(c(C)[n+]([O-])c1C)C(=O)C(NCc1ccc(F)cc1)=CC2=O	1.73 µM	3.78 µM	1.66 µM	4.14 µM	2.31 µM	4.61 µM	1.15 µM	2.76 µM	2.43 µM	> 100 µM	1.66 µM	6.49 µM	1.94 µM	6.32 µM	1.11 µM	2.86 µM	0.582 µM	1.84 µM	1.72 µM	4.23 µM
Cc1cc(Cl)nc(N(CCCNc2ccnc3cc(Cl)ccc23)Cc2cccs2)n1	2.52 µM	9.13 µM	1.99 µM	12.7 µM	1.74 µM	7.78 µM	0.856 µM	6.2 µM	0.496 µM	8.55 µM	2.61 µM	11 µM	1.22 µM	2.98 µM	1.74 µM	6.85 µM	1.94 µM	6.09 µM	1.82 µM	8.02 µM
c1cc(C2CCCCC2)ccc1-c1cnc2nonc2n1	1.29 µM	3.25 µM	1.52 µM	3.65 µM	0.422 µM	2.12 µM	1.13 µM	3.15 µM	0.4 µM	18.8 µM	0.973 µM	3.65 µM	0.527 µM	1.74 µM	0.393 µM	3.21 µM	0.237 µM	0.65 µM	0.631 µM	2.78 µM
Cc1c(NC(=O)Nc2c(Cl)cccc2Cl)c(=O)n(-c2ccccc2)n1C		> 100 µM		> 100 µM		> 100 µM		> 100 µM		> 100 µM		> 100 µM		> 100 µM		> 100 µM		> 100 µM		> 100 µM
Cc1ccc(N=Nc2c(O)ccc3n[nH]nc23)cc1	21.2 µM	> 100 µM	11.6 µM	50 µM	15.4 µM	83.8 µM	12.2 µM	50.6 µM	9.06 µM	> 100 µM	10.8 µM	37.9 µM	12.7 µM	> 100 µM	9.25 µM	97.5 µM	4.47 µM	37.5 µM	10.2 µM	57.7 µM
O=C1c2ccn(CCCNC(CO)(CO)CO)c2C(=O)c2c1c(O)c1ccccc1c2O	43.9 µM	> 90.2 µM	49.7 µM	> 100 µM	40 µM	> 86.9 µM	9.27 µM	56.8 µM	9.36 µM	90.1 µM	11.1 µM	25.7 µM	13.1 µM	29.7 µM	13 µM	33 µM	34.1 µM	> 65.4 µM	16.4 µM	50.9 µM
C=C(C)C1CCC2=CC(CC3(C)OC3C3=CC(C(=O)OC)=C(C1)O3)OC2=O (stereo not drawn)		> 100 µM		> 100 µM		> 100 µM		> 100 µM		> 100 µM		> 100 µM		> 100 µM		> 100 µM		> 100 µM		> 100 µM
C=C1C(=O)O[C@@H]2CC(CO)=C([C@@H](C)CCCO)[C@@H](OC(=O)/C(C)=C\C)[C@H]12		> 90.6 µM		48.2 µM		56.7 µM		35 µM		31.2 µM		43.7 µM		24.3 µM		23.4 µM		> 52.4 µM		49.7 µM
Oc1ccc(Cl)cc1Sc1cc(Cl)ccc1O	3 µM	33.6 µM and 9.29 µM	2.58 µM	33 µM and 8.19 µM	0.421 µM	9.71 µM and 3.43 µM	3.52 µM	32.5 µM and 9.5 µM	3.8 µM	> 100 µM	3.26 µM	31.4 µM and 9.18 µM	2.63 µM	24 µM and 8.42 µM	3.33 µM	34.5 µM and 10.7 µM	2.79 µM	23.9 µM and 9.08 µM	2.76 µM	20.8 µM and 9.93 µM
C[C@H]1COCCN1c1nc(-c2cnc(N)cc2C(F)F)nc(N2CCOCC2)n1	0.098 µM	0.818 µM	0.178 µM	2 µM	0.0197 µM	0.197 µM	0.0364 µM	0.285 µM	0.692 µM	> 100 µM	0.318 µM	41 µM	0.152 µM	4.44 µM	0.0487 µM	> 100 µM	0.182 µM	5.27 µM	0.0269 µM	0.181 µM
COc1c(B(O)O)cccc1-c1nc2ccc3[nH]ncc3c2c2c1CCCC2	0.122 µM	2.56 µM	2.65 µM	15.9 µM		6.56 µM	2.25 µM	14.3 µM	3.4 µM	> 100 µM	2.25 µM	10.9 µM	1.38 µM	6.28 µM	2.04 µM	13 µM	3.45 µM	12.1 µM	3.36 µM	> 37.7 µM
Cc1nn(Cc2ccccc2)cc1C(=O)Nc1sc2c(c1C(N)=O)CCC(=O)C2	2.56 µM	7.82 µM	3.03 µM	21.7 µM	1.88 µM	4.47 µM	2.44 µM	7.96 µM	1.7 µM	13.1 µM	1.94 µM	4.99 µM	1.78 µM	3.79 µM	2.48 µM	7.59 µM	1.98 µM	4.45 µM	1.27 µM	3.79 µM
CC(C)c1[nH]nc2c(NCc3ccc(-c4ccccn4)cc3)nc(SCCN)nc12	0.0322 µM and 0.067 µM	0.168 µM and 0.642 µM	0.0328 µM and 0.0557 µM	1.52 µM and 2.62 µM	0.0169 µM and 0.0222 µM		0.0215 µM and 0.0231 µM	12.4 µM	0.0198 µM	10.2 µM	0.0175 µM and 0.0126 µM	10.3 µM	0.00553 µM	2.62 µM and 1.65 µM	0.00401 µM	2.28 µM and 10.2 µM	0.00422 µM	1.08 µM and 1.07 µM	0.0182 µM	0.089 µM
CC1=CC(C)(C)Nc2ccc(Cc3ccc4c(c3)C(C)=CC(C)(C)N4)cc21	28.4 µM	> 100 µM	5.67 µM	> 100 µM	8.42 µM	65.6 µM	16.1 µM	> 100 µM	3.6 µM	51.8 µM	8.34 µM	72.6 µM	15.1 µM	82.2 µM	5.23 µM	26.3 µM	16.5 µM	> 100 µM	3.77 µM	35.2 µM
CN(C)c1cc2c(Nc3ccc4c(cnn4Cc4ccccc4)c3)ncnc2cn1	10.7 µM	> 25 µM	0.108 µM	> 8.76 µM	8.82 µM	> 25 µM	5.38 µM	> 23.3 µM	9.66 µM	> 25 µM	7.29 µM	> 20 µM	8.32 µM	> 25 µM	16.5 µM	> 25 µM	10.5 µM	> 25 µM	3.38 µM	> 20.5 µM
Cc1ccc(NC(=S)C#N)c(C)c1		> 100 µM		> 100 µM		> 100 µM		> 100 µM		> 100 µM		> 100 µM		> 100 µM		> 100 µM		> 100 µM		> 100 µM
O=c1cc(-c2ccccc2)oc2cc(OCCCCCN3CCOCC3)cc(O)c12	77.5 µM	> 100 µM	> 100 µM	> 100 µM	11 µM	26.6 µM	47.4 µM	> 100 µM	29 µM	> 100 µM	> 100 µM	> 100 µM	> 100 µM	> 100 µM	88.4 µM	> 100 µM	> 100 µM	> 100 µM	42.5 µM	> 100 µM
COc1cc2c(NC3CCN(C(C)C)CC3)nc(C3CCCCC3)nc2cc1OCCCN1CCCC1	3.85 µM	15.3 µM	8.42 µM	21.1 µM	3.48 µM	15.6 µM	12.5 µM	26.9 µM	1.99 µM	4.55 µM	3.07 µM	12.6 µM	1.75 µM	3.95 µM	2.64 µM	14.4 µM	1.67 µM	3.34 µM	2.54 µM	7.08 µM
O=C(N/N=C/c1cc(Cl)ccc1O)c1ccccc1Nc1ccnc(C(F)(F)F)c1	1.08 µM	25.7 µM	0.25 µM	4.86 µM	0.833 µM	12.1 µM	0.361 µM	13.3 µM	0.686 µM	14.5 µM	0.604 µM	11.5 µM	0.263 µM	12 µM	0.351 µM	30.3 µM	1.16 µM	16.9 µM	0.633 µM	9.62 µM
Cn1c2c(c3ccccc3c1=O)C(=O)c1ccccc1-2		> 100 µM		> 100 µM		> 100 µM		> 100 µM		> 100 µM		> 100 µM		> 100 µM		> 100 µM		> 100 µM		> 100 µM
